This note sets out measurements from patent publication US11396531B2, “Antimicrobial peptides comprising epsilon lysine residues” (priority 2016, dated 2022).

Each structure is given as a SMILES string. In brackets after ≈: the same amount, converted by molar mass.

Assay [1] relates to C. parapsilosis. To be noted: C. parpsilosis (n = 9), Table 5. How it is done:
(§1) MIC of cationic polymers and polypeptide were tested in accordance with the Clinical and Laboratory Standards Institute (CLSI) guidelines against a panel of antibiotic-susceptible/-resistant bacteria, yeasts and fungal strains. Bacterial and yeast strains were cultured on tryptic soy agar (TSA) and Sabaroud dextrose agar (SDA) plates (Neogen Corporation, MI, USA) overnight respectively. Inocula in Mueller-Hinton broth (MHB) for bacteria and SD broth for C. albicans (Beckton Dickinson, MD, USA) were prepared at 0.5 McFarland. The suspensions were then diluted to a final concentration of 10^5 CFU/ml in a 96-well microtitre plate (SPL Life Sciences Co., Ltd, Korea). […] The antimicrobial activities were compared with topical antiseptic agents, BAK and CHX. A similar protocol was used to determine the MIC of εPL against antibiotic-resistant pathogens. MIC of the polymers and polypeptides against Fusarium strains was determined in full strength RPMI-1640 buffer. Fungal spores were recovered from a 5-day old culture on a potato dextrose agar and diluted to a concentration of 10^5 spores/ml in 0.9% saline solution. A further 50-fold dilution was done in RPMI-1640 buffer and 100 μl of the inoculum was added to 96 well plates containing an equal volume of test peptides at 2-fold serial dilutions. 200 μl of inoculum without any additives and buffer alone served as positive and negative controls, respectively. The plate was then incubated at 30° C. for 48 h. The absorbance value was measured at 600 nm as before and the lowest concentration of the peptide which inhibited 90% growth was reported. All MIC determinations were performed in duplicates.
(§2) MICs of polymers/antibiotics were determined using the microdilution method in 96 well microtitre plates (SPL Life Sciences Co., Ltd, Korea), following the guidelines of Clinical and Laboratory Standards Institute (CLSI) document M100-S18. Briefly, polymers (1-512 μg/ml) or antibiotics were dissolved in appropriate media (Mueller Hinton broth, MHB for bacteria; Sabaroud's Dextrose (SD) broth for yeasts and RPMI buffer for Fusarium strains) and 100 μl of this was then mixed with an equal volume of microbial inoculum (OD600=˜0.08) in the same media and shaken in a closed incubator.

Assay [2] has as its system C. albicans. The protocol:
as §1, §2

Assay [3] concerns Vancomycin-resistant Enterococcus (VRE). To be noted: VRE (n = 21 strains), Table 5. How it is done:
as §1, §2

For assay [4], the system named is B. cereus ATCC 11778. The following applies: B. cereus ATCC 11778, Table 5. The protocol: as §1, §2
For assay [5], the system named is C. tropicalis. To be noted: C. tropicalis (n = 9), Table 5. How it is done: as §1, §2
Assay [6] has as its system E. cloacae complex. The assay is described as follows: microbe, parasite or virus in culture. How it is done: as §1, §2
For assay [7], the system named is A. baumannii. Description: microbe, parasite or virus in culture. The following applies: A. baumannii (n = 10), Table 5. The protocol: as §1, §2
In assay [8] the test system is Carbapenam-resistant Enterobacter strains (CRE). The assay is described as follows: microbe, parasite or virus in culture. The following applies: CRE (n = 19 strains), Table 5. How it is done: as §1, §2

On to `CC[C@H](C)[C@H](NC(=O)CN)C(=O)NCC(=O)N[C@@H](C)C(=O)N[C@H](C(=O)N[C@@H](CC(C)C)C(=O)N[C@@H](CCCCN)C(=O)N[C@H](C(=O)N[C@@H](CC(C)C)C(=O)N[C@H](C(=O)N[C@H](C(=O)NCC(=O)N[C@@H](CC(C)C)C(=O)N1CCC[C@H]1C(=O)N[C@@H](C)C(=O)N[C@@H](CC(C)C)C(=O)N[C@H](C(=O)N[C@@H](CO)C(=O)N[C@@H](Cc1c[nH]c2ccccc12)C(=O)N[C@H](C(=O)N[C@@H](CCCCN)C(=O)N[C@@H](CCCNC(=N)N)C(=O)N[C@@H](CCCCN)C(=O)N[C@@H](CCCNC(=N)N)C(=O)N[C@@H](CCC(N)=O)C(=O)N[C@@H](CCC(N)=O)C(N)=O)[C@@H](C)CC)[C@@H](C)CC)[C@@H](C)O)[C@@H](C)O)C(C)C)C(C)C` [Melittin], for which the MIC is 16 to 64 mg/L in assay [1]; 2 to 4 mg/L in assay [2] (C. albicans (n = 5), Table 5); 0.5 to 8 mg/L in assay [3] (range); 8 mg/L (≈ 2.81 µM) in assay [4]; 8 to 64 mg/L in assay [5]; 8 mg/L (≈ 2.81 µM) in assay [6] (E. cloacae complex 6780, Table 5). Also, the MIC is 8 mg/L (≈ 2.81 µM) in assay [6] (E. cloacae complex 44095, Table 5); 2 to 4 mg/L in assay [7] (range); 8 to 32 mg/L in assay [8] (range). For the same compound, in assay [2] (Table 4, range over 5 strains), the “MIC against C. albicans (n = 5)” value is 2 to 4 mg/L. Also, the MIC90 entry is “(MIC90 = 8)^2 μg/ml” in assay [3] (90% of strains susceptible) and “(MIC90 = 4)^2 μg/ml” in assay [7] (90% of strains susceptible). In addition, in assay [8] (50% of strains susceptible), the MIC50 result is on record as “(MIC50 = 8)^2 μg/ml”.
